Patent US10674699B2, “Endophyte enhanced seedlings with increased pest tolerance” (priority 2006, dated 2020)

Assays:
Aspergillus fumigatus = assay: Fungal growth in budmoth test vials with dietary rugulosin; assay type: cell-based; details: A. fumigatus-contaminated larvae; few vials with fungal growth at 100 and 150 μM
Protocol: Zeiraphera canadensis larvae (spruce budmoth) were collected from the wild near Sussex in mid June. They were immediately put in test vials and tested at rugulosin concentrations of 10, 50, 100 and 150 μM (75 per concentration). After seven days, surviving larvae were frozen and measured.
Many (60%) succumbed to fungal infections (Aspergillus fumigatus) and other unknown causes over the course of rearing. […] However, using the Wilcoxon matched-pairs signed-ranks test, the larvae fed 100 or 150 μM rugulosin in the diet were lighter than those fed the 10 μM rugulosin and control diets (p<0.10). Because of the high percentage of A. fumigatus-contaminated larvae in the experiment, an unanticipated result was the antifungal activity observed above 50 μM, few vials had fungal growth in the tests at 100 μM and 150 μM rugulosin.

[1] = system: Choristoneura fumiferana (spruce budworm) larvae; details: Calhoun et al. 1992; cited from earlier work
[2] = Rugulosin analysis of needles by HPLC (toxin in planta); set-up: species or system Picea glauca; details: field trees analyzed in 2005, limit of detection 150 ng/g
Protocol: Rugulosin of purity>95% was used for standards. The presence of rugulosin was then to be determined in a sub-sample of 113 randomly-selected trees of the 330 trees determined to be endophyte positive by antibody. A 100 mg sample of freeze-dried needles was ground to a fine power as describe above and extracted with 10 mL of ice cold petroleum ether by stirring for 45 min under conditions of low light. The flask was kept on ice during the extracting and was covered with aluminium foil to prevent degradation by light. The suspension was filtered by suction and discarded. The needles were returned to the flask and extracted with 10 mL of chloroform for 45 min as above for petroleum ether. The new suspension was then filtered by suction and retained while the needles were discarded. The chloroform extract was washed with 10 mL of 5% NaHCO3 in a separatory funnel. […]
The dried extracts were re-dissolved in 50 μL of acetonitrile, 10 μL was removed and injected into an 1100 series Agilent Technologies HPLC-DAD, using a Synergi Max RP 80A, 250×4.6 column (Phenomonex) and a gradient method adapted from Frisvad (1987). […] Samples were analysed at 389 nm, the maximum UVNIS absorption for rugulosin and peak identity was confirmed by full spectrum data from the diode array detector. The limit of quantification was 150 ng/g freeze dried powdered material; recoveries from spiked needles averaged 75%. […]

[3] = system: Choristoneura fumiferana (spruce budworm) larvae; assay: Dietary rugulosin in artificial diet, spruce budworm larvae; assay type: in vivo
Protocol: Spruce budworm (Choristoneura fumiferana) larvae were obtained from the colony at the Natural Resources Canada, Canadian Forest Service Laboratory in Sault Ste. Marie, Ontario and stored at 5° C. For each test, second instar larvae are put in creamer cups containing approximately 15 ml of artificial diet which had been prepared the day before and allowed to set overnight. The diet used is based on McMorran (1965) as modified by Forestry Canada. The cups are placed in a growth chamber at 22° C., 55% RH with 16 h light/day until they reach 4-5 instar as estimated by visually assessment. Batches of diet are prepared and suitable portions were measured out for addition of extracts, fractions or pure compounds. After 4 days on the test diet, the budworms were frozen, weighed and measured. The data was analyzed for dry weight reductions in comparison to controls and for changes in the distribution of insects at different instars in comparison to controls.
C. fumiferana larvae (spruce budworm) were obtained from Insect Production Services, Forestry Canada (Sault Ste. Marie, ON) and stored at 5° C. For each test, a sufficient number of larvae were hatched and put in creamer cups containing 15 ml of artificial diet. The diet was prepared in-house (McMorran 1965). The cups were placed in a growth chamber at 22° C., 55% RH with 16 h light/day until the larvae reached second/third instar (McGugan 1954). A suitable amount of diet was prepared, and 4 aliquots dispensed into a flask. Dilutions of pure rugulosin were made in 95% ethanol to provide the required concentrations (540 μl ethanol solution plus the vehicle control) and added to the flasks respectively. The diet was mixed with a stir bar and by the pipette used to dispense the media. Two drops of hot liquid diet were added with a 10 ml sterile pipette (0.1 g dry weight) to 4 ml tapered plastic sample cups (Fisher Scientific #025444, #25444A). […] Head capsule widths were determined using a stereo microscope at 40× with ocular and stage micrometers. […]

## Cc1cc(O)c2c(c1)C(=O)[C@]13C(=C2O)C(=O)[C@@H]2[C@H](O)[C@H]1[C@@H]1[C@@H](O)[C@H]3C(=O)C3=C(O)c4c(O)cc(C)cc4C(=O)[C@]312 [rugulosin]
Aspergillus fumigatus
  rugulosin concentration above which antifungal activity was observed: above 50 μM
[1]
  toxicity to C. fumiferana larvae in an artificial diet: toxic
[2]
  individual branch samples positive for rugulosin or its degradation product: 89%
[3]; artificial diet, 4 d
  dietary rugulosin concentration with significantly reduced head capsule: 100 µM
[3]; dietary LOEL adjusted for mean ratio dry weight:wet weight of needles
  dietary toxic effect level for rugulosin: 0.5 µg/g
[3]; in vitro (diet), Example 1
  rugulosin concentration in vitro that affected budworm growth and development: 1 µg/g
